{"source": "patent US8852559B2", "about": "(Colgate-Palmolive Company, priority 2009, dated 2014)", "key": {"[1]": {"experiment": "Stability of Compound 1 formulations with and without antioxidants", "assay_type": "physicochemical", "source_text": "The stability of three formulations of Compound 1 are compared, the formulations being identical except that one is without any antioxidants, one contains α-tocopherol, and the third contains sodium ascorbylphosphate."}, "biofilm": {"system": "biofilm", "experiment": "Biofilm disruption assay", "assay_type": "cell-based", "experimental": "The solution of 0.5% AN0128.0.75% SLS. 50% Fluraflo L4370 in water is then tested in a biofilm disruption assay.\nA solution of 2% Compound 1 in PEG 300 is diluted 1:1 with 2% SLS in water to produce a solution composed of 1% Compound 1, 1% SLS, 50% PEG 300 in water which is then tested in a biofilm disruption assay.\nThe properties of Compound 1 in conjunction with other excipients are further evaluated by diluting a solution of Compound 1 in PEG 300 into other solvents such as propylene glycol and glycerin at varying ratios. A solution containing 1% Compound 1 in 19% PEG 300 and 80% propylene glycol is clear. This solution is then diluted 1:1 with 1% SLS in water to produce a solution composed of 0.5% Compound 1, 0.5% SLS, 9.5% PEG 300 and 40% propylene glycol in water which is then tested in the biofilm disruption assay. The percent reduction achieved versus the negative control is 80%. […] Similar results are achieved with PEG and glycerin."}, "[2]": {"assay_type": "physicochemical", "source_text": "The poor solubility of Compound A presents some formulation challenges. Its solubility in water is less than 100 ppm, and its solubility in flavor oils (often used to solubilize actives) is less than 0.5%. We have discovered that co-polymers of polyethylene glycol and polypropylene glycol are able to solubilize Compound 1. Fluraflo L4370 (BASF) is able to solubilize 1% Compound 1 (% w/w). It is necessary to stir the solution over low heat to fully solubilize the active. The resulting solution is cloudy, reflecting the nature of the Fluraflo L4370 itself. The solution of 1% Compound 1 in Fluraflo L4370 is diluted 1:1 with 1.5% SLS in water to produce a clear solution, composed of 0.5% AN0128, 0.75% SLS, 50% Fluraflo L4370 in water Similar results are achieved using Fluracare L1220.\nWe also discovered that Tri-block Co-polymer Surfactant F127 is able to further enhance solubilization of Compound 1. In experimental liquid dentifrice formulas (Table 3), Compound 1 is not completely soluble over time, as evidenced by precipitation and crystallization over time. After the addition of 5% F127, experimental liquid dentifrice formulas (Table 4) remain clear. Therefore, Tri-block Co-polymer Surfactant F127 is able to further solubilize Compound 1 and is suitable for use in formulations.\nWe further discovered that low molecular weight polyethylene glycol 300 (PEG 300)(Dow Chemical Company) solubilizes 10% Compound 1 (% w/w). It is necessary to stir the solution over low heat to fully solubilize the active. The resulting solution is clear with a slight yellow tint due to the color of Compound 1. […] Therefore, we conclude that solvents containing oligomers and/or polymers of ethylene glycol are capable of solubilizing Compound 1 and are suitable for formulation.\nThe properties of Compound 1 in conjunction with other excipients are further evaluated by diluting a solution of Compound 1 in PEG 300 into other solvents such as propylene glycol and glycerin at varying ratios. A solution containing 1% Compound 1 in 19% PEG 300 and 80% propylene glycol is clear. […]"}, "[3]": {"experiment": "Decomposition of Compound 1 in buffered vs unbuffered pH 7.2 formulation", "assay_type": "physicochemical", "conditions": "phosphate buffered vs unbuffered formulation, pH 7.2, over 14 days", "experimental": "Two pH 7.2 formulations of Compound 1 are prepared, one with phosphate buffer, one without, and the decomposition of Compound 1 is measured over 14 days. While measurable decomposition is seen in both formulations, the slope of the rate of decomposition Compound 1 in the buffered formulation is decreased by 3.3 fold compared to that of the unbuffered formulation."}}, "data": [{"molecule": "Cc1ccc([B-]2(c3ccc(C)c(Cl)c3)OC(=O)c3ncccc3[OH+]2)cc1Cl", "note": "[Compound 1]", "values": [{"measurement": "decomposition in formulation", "setting": "[1]; formulation containing sodium ascorbylphosphate vs without any antioxidants", "value": "significantly reduced"}, {"measurement": "decomposition in formulation", "setting": "[1]; formulation containing α-tocopherol vs sodium ascorbylphosphate formulation", "value": "even less"}, {"measurement": "percent reduction versus the negative control", "setting": "biofilm; 0.5% AN0128, 0.75% SLS, 50% Fluraflo L4370 in water", "value": 65, "unit": "%"}, {"measurement": "percent reduction versus the negative control", "setting": "biofilm; 0.5% Compound 1, 0.5% SLS, 9.5% PEG 300 and 40% propylene glycol in water", "value": 80, "unit": "%"}, {"measurement": "percent reduction versus the negative control", "setting": "biofilm; 1% Compound 1, 1% SLS, 50% PEG 300 in water", "value": 76, "unit": "%"}, {"measurement": "amount solubilized in Fluraflo L4370", "setting": "[2]", "value": 1, "unit": "% w/w"}, {"measurement": "amount solubilized in polyethylene glycol 300", "setting": "[2]", "value": 10, "unit": "% w/w"}, {"measurement": "solubility in various oils", "setting": "[2]", "value": "less than 0.5%"}, {"measurement": "decrease of slope of the rate of decomposition of Compound 1", "setting": "[3]", "value": 3.3, "unit": "fold"}]}]}
